Values of other authors, collected in patent US20050004105A1, “Treatment for a attention-deficit hyperactivity disorder” (priority 2003, published 2005).
Where a name gives a salt, the structure may show the parent alone. Read-outs that look alike come from different tables or passages of the source.

How the values were obtained:
[1] = biological target: 5-HT1B/1D receptor; details: [3H]5-CT […] or 2 nM in cortex; exemplary protocol; read-out: Ki of reference compound, 5-HT1B/1D binding assay; cited from earlier work
[2] = biological target: 5-HT1B/1D receptor; details: [125I]iodocyanopindolol 0.15 nM in striatum; exemplary protocol; read-out: Ki of reference compound, 5-HT1B/1D binding assay; cited from earlier work
[3] = biological target: α1 receptor; details: rat forebrain membranes, [3H]7-MeOxy-prazosin; exemplary protocol; read-out: Ki of reference compound, α1 binding assay; cited from earlier work

For `NCCc1c[nH]c2ccc(C(N)=O)cc12` [5-CT, 5-carboxyamidotryptamine], which Ki [1] is on record?
Its Ki is 0.7 to 1.1 nM.

Which Ki [2] does the source give for `NCCc1c[nH]c2ccc(O)cc12` [5-HT] here?
Its Ki is about 13.8 nM.

For `Cc1ccc(N(CC2=NCCN2)c2cccc(O)c2)cc1` [phentolamine mesylate], which Ki [3] is on record?
The Ki was about 5.4 nM.
